The results in this text go back to ChEMBL document CHEMBL1201862, “PubChem BioAssay data set” (2004).

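Test compounds were applied to cells in 96-well plates for 48 hours at 5 doses. At the GI50, growth is halved.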 Active and inactive are the calls of the source. No stated cut-off is given here; in the data, active = GI50 up to about 1.1 µM and inactive = higher. Where only a bound is given, the exact number is not on record here.

Some test systems named below: SNB-75; Malme-3M; 786-0; HOP-62; UO-31; NCI-H460; SF-268; SF-295; EKVX; SNB-19; OVCAR-4; KM12; HOP-92; TK-10; HCT-15; A498; DU-145; NCI-H522; LOX IMVI; OVCAR-3.
What all share (test): NCI anticancer screen, dose series, 48 h

As for `Cc1ccc(S(=O)(=O)NNC(=O)Nc2ccc(Cl)cc2)cc1`, the GI50 with SNB-75 was 25.5 µM (inactive); in the assay on Malme-3M, > 100 µM (inactive); with 786-0 it was > 100 µM (inactive); in the assay with HOP-62 it was > 100 µM (inactive); in the assay on UO-31, > 100 µM (inactive); with NCI-H460, > 100 µM (inactive). Further, the GI50 is > 100 µM (inactive) in the assay on SF-268; > 100 µM (inactive) in the assay on SF-295; > 100 µM (inactive) with EKVX; > 100 µM (inactive) in the assay on SNB-19; 51.5 µM (inactive) in the assay with OVCAR-4; > 100 µM (inactive) in the assay with KM12. Further, the GI50 is > 100 µM (inactive) in the assay on HOP-92; > 100 µM (inactive) with TK-10; greater than 100 µM with HCT-15; > 100 µM (inactive) in the assay with A498; > 100 µM (inactive) with DU-145; > 100 µM (inactive) in the assay with NCI-H522.

For `O=c1ccc2ccc(CBr)cc2o1`, the GI50 with SNB-75 was > 100 µM (inactive); with LOX IMVI, 1.5 µM (inactive); in the assay with HOP-62, 17 µM (inactive); with NCI-H460, 10.8 µM (inactive); in the assay on SF-295, 15.3 µM (inactive); with EKVX, 2.49 µM (inactive). Moreover, the GI50 with SNB-19 was 12.4 µM (inactive); in the assay on HOP-92 it was 1.68 µM (inactive); in the assay on TK-10, 1.75 µM (inactive); in the assay on HCT-15 it was 1.87 µM; in the assay on A498, 16 µM (inactive); with DU-145 it was 17.1 µM (inactive). Moreover, the GI50 with NCI-H522 is 1.26 µM (inactive).

For the molecule `CC(=O)c1c(-c2ccccc2)c(-c2ccc(OCCN(C)C)cc2)n2ccccc12`, the GI50 in the assay on SNB-75 was 12.4 µM (inactive); in the assay on Malme-3M it was 11.9 µM (inactive); in the assay with 786-0, 18.3 µM (inactive); with LOX IMVI, 15.7 µM (inactive); in the assay with UO-31, 16.7 µM (inactive); with NCI-H460, 13.2 µM (inactive). For the same molecule, the GI50 in the assay on OVCAR-3 is 16.6 µM (inactive); in the assay on SF-268, 16.8 µM (inactive); with SF-295, 17.2 µM (inactive); with EKVX it was 17.5 µM (inactive); in the assay with SNB-19 it was 19.3 µM (inactive); in the assay on OVCAR-4, 24.8 µM (inactive). Besides, the GI50 in the assay on KM12 was 13.5 µM (inactive); in the assay on HOP-92, 10.1 µM (inactive); in the assay on TK-10, 17 µM (inactive); with HCT-15, 10.7 µM; with A498, 19.2 µM (inactive); in the assay on DU-145, 16.8 µM (inactive). In addition, the GI50 in the assay on NCI-H522 is 14.1 µM (inactive).

For `COc1ccc2nc(-n3c(/C=C/c4ccccc4O)nc4ccccc4c3=O)sc2c1`, the GI50 is 72.1 µM (inactive) in the assay with SNB-75; 71.6 µM (inactive) in the assay on Malme-3M; 35.9 µM (inactive) in the assay on 786-0; 69.5 µM (inactive) with LOX IMVI; > 100 µM (inactive) with HOP-62; 64.6 µM (inactive) in the assay with UO-31. The GI50 in the assay on NCI-H460 is > 100 µM (inactive); in the assay with OVCAR-3, > 100 µM (inactive); with SF-268, > 100 µM (inactive); in the assay on SF-295 it was 80.5 µM (inactive); with EKVX, 8.51 µM (inactive); in the assay on SNB-19 it was 35.5 µM (inactive). Further, the GI50 was > 100 µM (inactive) with OVCAR-4; 64.4 µM (inactive) in the assay with KM12; 60.8 µM (inactive) in the assay on HOP-92; > 100 µM (inactive) in the assay with TK-10; 60.1 µM with HCT-15; 29.9 µM (inactive) in the assay with A498. Also, the figures for the GI50 in the assay on DU-145 and in the assay with NCI-H522 were > 100 µM (inactive) and 58.1 µM (inactive), respectively.

Turning to `COc1ccc(NC(C)=O)cc1N1C(=O)/C(=C\c2ccccc2)SC1c1cc(OC)c(OC)c(OC)c1` (stereo not given), the GI50 was 24.3 µM (inactive) with Malme-3M; 19.2 µM (inactive) with 786-0; 14.9 µM (inactive) in the assay with LOX IMVI; 39.2 µM (inactive) in the assay on HOP-62; 33.7 µM (inactive) in the assay with UO-31; 15.5 µM (inactive) in the assay on NCI-H460. For the same molecule, the GI50 in the assay on OVCAR-3 was 29.4 µM (inactive); in the assay with SF-268, 17.7 µM (inactive); in the assay with SF-295, 42.1 µM (inactive); in the assay on EKVX, 27.2 µM (inactive); in the assay with SNB-19, 34 µM (inactive); in the assay on KM12, 16.3 µM (inactive). Also, the GI50 with HOP-92 is 14.6 µM (inactive); with TK-10, > 100 µM (inactive); with HCT-15, 21.7 µM; with A498, 60 µM (inactive); with DU-145 it was 20.4 µM (inactive); in the assay on NCI-H522 it was 13.8 µM (inactive).

Take `C=C1CC(Cn2cc(Br)c(=O)[nH]c2=O)(c2ccc(Br)cc2)OC1=O` (stereo not given): the GI50 in the assay on SNB-75 is 13.2 µM (inactive); in the assay on Malme-3M, 1.87 µM (inactive); with 786-0, 1.63 µM (inactive); in the assay on LOX IMVI it was 1.58 µM (inactive); in the assay with HOP-62 it was 14.5 µM (inactive); in the assay with UO-31, 14.1 µM (inactive). Further, the GI50 in the assay on NCI-H460 was 14.1 µM (inactive); with OVCAR-3, 3.34 µM (inactive); with SF-268, 13.6 µM (inactive); in the assay on SF-295, 12.1 µM (inactive); in the assay on EKVX, 17.9 µM (inactive); in the assay with SNB-19 it was 15.8 µM (inactive). Besides, the GI50 with OVCAR-4 is 1.85 µM (inactive); in the assay with KM12 it was 4.02 µM (inactive); with HOP-92, 1.33 µM (inactive); with TK-10, 7.23 µM (inactive); with HCT-15 it was 1.83 µM; in the assay on A498, 1.22 µM (inactive). The GI50 was 5.65 µM (inactive) in the assay with DU-145 and 1.6 µM (inactive) in the assay with NCI-H522.

In the case of `Cc1ccc(S(=O)(=O)OCCN(CCOS(=O)(=O)c2ccc(C)cc2)c2ccc(C=O)cc2)cc1`, the GI50 with Malme-3M is 25.4 µM (inactive); in the assay with LOX IMVI it was 38.7 µM (inactive); with UO-31, 19.5 µM (inactive); in the assay on NCI-H460, 21.9 µM (inactive); in the assay on OVCAR-3, 23.7 µM (inactive); in the assay on SF-268 it was 46.6 µM (inactive). The GI50 is 44.3 µM (inactive) in the assay with SF-295; 30.8 µM (inactive) in the assay with EKVX; 60.8 µM (inactive) with SNB-19; 21.2 µM (inactive) in the assay with OVCAR-4; 22.8 µM (inactive) in the assay on KM12; 26.1 µM (inactive) with HOP-92. Moreover, the GI50 was 36.3 µM (inactive) in the assay with TK-10; 30.1 µM in the assay on HCT-15; 24.9 µM (inactive) in the assay with A498; 27.1 µM (inactive) with DU-145; 10.8 µM (inactive) in the assay on NCI-H522.

Take `O/N=C\c1cc(O)c(O)c(/C=N/O)c1`: the GI50 is > 100 µM (inactive) in the assay on SNB-75; > 100 µM (inactive) in the assay on Malme-3M; 47.8 µM (inactive) in the assay on LOX IMVI; 29.4 µM (inactive) with HOP-62; 16 µM (inactive) in the assay on UO-31; 27.9 µM (inactive) in the assay on NCI-H460. Besides, the GI50 in the assay with OVCAR-3 was 20.6 µM (inactive); with SF-268 it was 15.2 µM (inactive); with SF-295, 55.1 µM (inactive); with EKVX, 34.8 µM (inactive); in the assay on SNB-19 it was 89.5 µM (inactive); with OVCAR-4, 52 µM (inactive). Moreover, the GI50 in the assay with KM12 was 38.4 µM (inactive); with HOP-92, 49.9 µM (inactive); in the assay on TK-10 it was 63.4 µM (inactive); in the assay with HCT-15, 34.9 µM; with A498, 69.3 µM (inactive); in the assay on DU-145, 31.6 µM (inactive). In the assay on NCI-H522, the GI50 is 8.73 µM (inactive).

Take `COC(=O)C1=Nc2c(C)nn(-c3ccccc3)c2N=C(c2ccccc2)C1`: the GI50 in the assay with SNB-75, in the assay on Malme-3M, with 786-0, in the assay with LOX IMVI, in the assay with HOP-62 and with OVCAR-3 was > 10 µM (inactive) in each case. For the same molecule, the GI50 with SF-268, in the assay on SF-295, with SNB-19, with OVCAR-4, in the assay with KM12 and in the assay on HOP-92 was > 10 µM (inactive) each time. The GI50 was > 10 µM (inactive) in the assay on TK-10, greater than 10 µM in the assay on HCT-15, > 10 µM (inactive) in the assay with DU-145 and > 10 µM (inactive) in the assay on NCI-H522.

On to `CC(=O)C(CN1CCCCC1)C(c1ccccc1)c1c(O)c2ccccc2oc1=O` (stereo not given), for which the GI50 in the assay on SNB-75, in the assay on Malme-3M, with 786-0, in the assay on LOX IMVI, in the assay on HOP-62 and in the assay on UO-31 was > 100 µM (inactive) in each case. In addition, the GI50 in the assay on NCI-H460, with OVCAR-3, in the assay with SF-268, with SF-295, in the assay on EKVX and with SNB-19 was > 100 µM (inactive) each time. The GI50 with OVCAR-4 is > 100 µM (inactive); in the assay on KM12 it was > 100 µM (inactive); in the assay with HOP-92, 41 µM (inactive); with TK-10, > 100 µM (inactive); in the assay with HCT-15, greater than 100 µM; in the assay on A498, > 100 µM (inactive). The GI50 in the assay with DU-145 and in the assay with NCI-H522 was > 100 µM (inactive) each time.

`O=c1c(C(c2ccc(OCc3ccccc3)cc2)c2c(O)oc3ccccc3c2=O)c(O)oc2ccccc12`: the GI50 in the assay with SNB-75 was 18.6 µM (inactive); with Malme-3M, 28.6 µM (inactive); in the assay on 786-0, 38.2 µM (inactive); in the assay with LOX IMVI it was 34.2 µM (inactive); with HOP-62 it was 47.5 µM (inactive); with UO-31, 19 µM (inactive). In addition, the GI50 is 35 µM (inactive) in the assay on NCI-H460; 63.8 µM (inactive) in the assay with OVCAR-3; 29.4 µM (inactive) in the assay on SF-268; 61.2 µM (inactive) with SF-295; 39 µM (inactive) in the assay with EKVX; 40.6 µM (inactive) in the assay with SNB-19. Also, the GI50 is 46.1 µM (inactive) in the assay with OVCAR-4; 29.6 µM (inactive) with KM12; 36.2 µM (inactive) in the assay with HOP-92; 62.1 µM (inactive) with TK-10; 41.7 µM with HCT-15; 83.2 µM (inactive) in the assay with A498. The GI50 is 67.6 µM (inactive) in the assay with DU-145 and 27.2 µM (inactive) in the assay with NCI-H522.
